US20130172294A1, “Treatment with VB-201” (Vascular Biogenics Ltd., priority 2010, published 2013)
Entries after “also recorded” stand apart in the source; their conditions may differ.

Assays:
[1] = Safety and tolerability of repeated doses 5-30 mg (Example 2); type: in vivo, human
Description: (§1) Safety and tolerability of VB-201 was judged by evaluating the incidence of abnormal findings in the following measurements: vital signs: systolic and diastolic blood pressure, heart rate, respiratory rate, body temperature; physical examination; 12-lead electrocardiogram; laboratory tests of blood samples for: complete blood count, prothrombin time/partial thromboplastin time, LDL- and HDL-cholesterol, total cholesterol, triglycerides, glucose, blood urea nitrogen, sodium, potassium, creatinine, calcium, phosphorus, creatinine phosphokinase, lactate dehydrogenase, aspartate transaminase, alanine transaminase, γ-glutamyl transferase, alkaline phosphatase, protein, albumin, total bilirubin, total IgM and IgG antibodies, interleukin-12/23 p40, tumor necrosis factor-α, and interleukin-6, as well as routine urinalysis; and all adverse events, whether or not considered serious, and whether or not considered related to the investigational agent, according to the criteria for Good Clinical Practice. Treatment-emergent adverse events were defined as any adverse event that started on or after administration of the first dose of VB-201, and no more than 30 days after administration of the last dose, or are ongoing at the time of the first dose and worsened in severity or frequency during treatment. […] The subjects were all healthy volunteers. […] 10 subjects received a placebo. […]

[2] = Repeated daily dose pharmacokinetics, 40 and 80 mg (Example 4); type: in vivo, human
Description: Determination of VB-201 concentrations in plasma was performed using an HPLC-MS/MS (high performance liquid chromatography with tandem mass spectrometric detection) assay. Calibration was for a range of from 5 to 500 ng/ml for low doses and from 50 to 5000 ng/ml for high doses. Pharmacokinetic parameters were estimated by using a non-compartmental method, except for the AUC (area under curve), which was determined using a (log-) trapezoidal rule as the area above the previous trough level. […] The subjects were all healthy volunteers. […] 6 subjects received a placebo. The VB-201 was formulated in non-enterocoated capsules. Blood was collected for pharmacokinetic evaluation on day 1 (40 mg cohort) and on day 14 (40 and 80 mg cohorts).

[3] = Safety and tolerability of repeated doses 40 and 80 mg (Example 4); type: in vivo, human
Description: as §1, with “6” for “10”

[4] = system: Human monocytes (CD14+ cells)
Description: Human monocytes (CD14^+ cells) were isolated from whole blood of healthy donors. Following PBMC (peripheral blood mononuclear cell) separation from whole blood using Ficoll-Paque and leucosep tubes, CD14^+ cells were separated using specific CD14 micro beads (Miltenyi Biotech). Purity of the CD14^+ population was validated using specific monoclonal CD14 antibody by FACS analysis. For chemoattractant, RANTES (100 ng/ml), MIP-1α (macrophage inflammatory protein-1a; 50 ng/ml), MCP-1 (monocyte chemotactic protein-1; 50 ng/ml) or MCP-3 (50 ng/ml) were dissolved in 2% fetal bovine serum/RPMI-1640 and placed at the lower chamber of QCM™ 24-well migration assay plate (Corning-Costar). CD14+ cells were pre-incubated for 30 minutes with solvent (1% ethanol/PBS) or VB-201 at 8 μM (or different concentrations ranging between 1.7-17 μM, not shown). Migration assay was conducted by seeding 300,000 treated cells in the upper chamber, followed by incubated for 3-4 hours, after which the number of migrated cells was determined by FACS (fluorescence activated cell sorting).
VB-201 was tested in vitro as described hereinabove for possible effects on migration of human primary monocytes towards inflammatory chemokines using a trans-well assay. For a broad analysis, several chemoattractants which serve as ligands for different chemokine receptors were used. Two assays were performed in triplicates for each chemoattractant.

[5] = system: adjuvant-induced arthritis; settings: in vivo animal model; cited from earlier work
[6] = system: collagen-induced arthritis; settings: in vivo animal model; cited from earlier work

CCCCCCCCCCCCCCCCOCC(COP(=O)([O-])OCC[N+](C)(C)C)OCCCCC(=O)O (stereo not shown) [VB-201, 1-hexadecyl-2-(4′-carboxybutyl)-glycerol-3-phosphocholine]
serious or severe adverse events ([1]; daily 5-30 mg, 14 days): No serious or severe adverse events occurred
safety and tolerability ([1]; orally for 14 days at daily doses 5 mg to 30 mg): as safe and tolerable as placebo
AUC(0-infinity) ([2]; daily 40 mg, Day 1): 31952 ± 9680 ng·h/mL
Cl/F (0-24) ([2]; daily 40 mg, Day 1): 2.837 ± 1.064 L/h
Cl/F(0-infinity) ([2]; daily 40 mg, Day 1): 1.346 ± 0.401 L/h
Cmax ([2]; daily 40 mg, Day 1): 923.7 ± 287.4 ng/mL
Ke ([2]; daily 40 mg, Day 1): 0.0305 ± 0.0124 h⁻¹
MTT (0-24) ([2]; daily 40 mg, Day 1): 12.0 ± 0.5 h
MTT(0-infinity) ([2]; daily 40 mg, Day 1): 41.3 ± 17.6 h
T1/2 ([2]; daily 40 mg, Day 1): 26.8 ± 13.0 h
Tmax ([2]; daily 40 mg, Day 1): 8.7 ± 3.8 h
AUC(0-24) ([2]; daily 40 mg, Day 14): 47393 ± 16792 ng·h/mL
AUC(0-infinity) ([2]; daily 40 mg, Day 14): 117013 ± 55816 ng·h/mL
Cl/F (0-24) ([2]; daily 40 mg, Day 14): 0.970 ± 0.436 L/h
Cl/F(0-infinity) ([2]; daily 40 mg, Day 14): 0.405 ± 0.172 L/h
Cmax ([2]; daily 40 mg, Day 14): 2544.6 ± 800.5 ng/mL
Ke ([2]; daily 40 mg, Day 14): 0.0270 ± 0.0111 h⁻¹
MTT (0-24) ([2]; daily 40 mg, Day 14): 11.1 ± 0.4 h
MTT(0-infinity) ([2]; daily 40 mg, Day 14): 45.2 ± 18.8 h
T1/2 ([2]; daily 40 mg, Day 14): 30.2 ± 13.6 h
Tmax ([2]; daily 40 mg, Day 14): 4.2 ± 2.0 h
AUC(0-24) ([2]; daily 80 mg, Day 14): 89779 ± 21751 ng·h/mL
AUC(0-infinity) ([2]; daily 80 mg, Day 14): 206918 ± 62474 ng·h/mL
Cl/F (0-24) ([2]; daily 80 mg, Day 14): 0.941 ± 0.247 L/h
Cl/F(0-infinity) ([2]; daily 80 mg, Day 14): 0.422 ± 0.144 L/h
Cmax ([2]; daily 80 mg, Day 14): 4820.2 ± 930.3 ng/mL
Ke ([2]; daily 80 mg, Day 14): 0.0251 ± 0.0048 h⁻¹
MTT (0-24) ([2]; daily 80 mg, Day 14): 11.0 ± 0.4 h
MTT(0-infinity) ([2]; daily 80 mg, Day 14): 41.5 ± 7.8 h
T1/2 ([2]; daily 80 mg, Day 14): 28.5 ± 5.8 h
Tmax ([2]; daily 80 mg, Day 14): 6.0 ± 1.1 h
serious adverse events ([3]; daily 40 or 80 mg, 14 or 28 day cohorts): No serious adverse events were reported
safety and tolerability ([3]; daily doses of up to 80 mg for up to 28 days): both safe and well-tolerated; also recorded: well-tolerated by subjects, and no substantial toxicity was observed
migration of human primary monocytes towards MCP-1 ([4]; 8 μM VB-201, 30 min pre-treatment, MCP-1 50 ng/ml): significantly (P<0.05) reduced
migration of human primary monocytes towards MCP-3 ([4]; 8 μM VB-201, 30 min pre-treatment, MCP-3 50 ng/ml): significantly (P<0.05) reduced
migration of human primary monocytes towards MIP-1α ([4]; 8 μM VB-201, 30 min pre-treatment, MIP-1α 50 ng/ml): significantly (P<0.05) reduced
migration of human primary monocytes towards RANTES ([4]; 8 μM VB-201, 30 min pre-treatment, RANTES 100 ng/ml): significantly (P<0.05) reduced
dose dependence of inhibition of monocyte migration ([4]; in vitro, 1.7-17 μM): dose-dependent
efficacy in adjuvant-induced arthritis [5]: effective
efficacy in collagen-induced arthritis [6]: effective
